In US5026829A, “Cyclo substituted propyleneamine oxime and its use as a brain imaging agent” (University of Cincinnati, priority 1989, dated 1991):
One block for each molecule: values may come before it.

What was measured:
[1] = Brain uptake, retention and tomographic brain imaging in normal human volunteers; assay type: in vivo
Method: (§1) In order to test the whole body biodistribution of the 99m-Tc CB-PAO tracer, three normal human volunteers were tested using single photon emission computed tomography. Whole body images were obtained at 15 minutes, two hours and five hours after an intraveneous injection of about 13 millicurries of Tc-99m d,l-CB-PAO. A dynamic study during the first ten minutes after administration of the tracer defined the time activity curve for brain uptake. The tomographic study was performed at one hour after administration. Venous blood samples were collected at various times up to five hours after administration and urine was collected up to 24 hours after administration.
The decrease in cerebral activity is only about 5% between 15 minutes and 2 hours after injection. Approximately 24% of the injected dose is cleared through the renal system within five hours and approximately 37% is cleared within 24 hours.

[2] = Comparative in vitro stability of 99m-Tc CB-PAO and 99m-Tc HM-PAO prepared in the same vial (HPLC); assay type: physicochemical; conditions: for Stabilization: CB relative to HM; for CB/HM: ratio of CB to HM percentage; for in vitro stability, in words: 13.4 hours; for percentage of 99m-Tc complex (CB or HM): same vial, HPLC
Method: In order to test the in vitro stability of the 99m-Tc-CB-PAO, 99m-Tc-CB-PAOand 99m-Tc-HMPAO were prepared in the same vial. The CB-PAO and HM-PAO agents were both reacted with pertechnetate in the same vial. This insures that both compositions were subjected to the same characteristics. These were then tested using HPLC. The results showing the percentage of 99m-Tc CB-PAO (labeled CB) and 99m-Tc HM-PAO labeled HM are shown in Table 1 over a period of 0 minutes to 13.4 hours.

[3] = Renal clearance (urine collection) in normal human volunteers; assay type: in vivo
Method: as §1

[4] = Whole body biodistribution by single photon emission computed tomography in normal human volunteers; assay type: in vivo; conditions: intravenous, about 13 millicurries, in %
Method: as §1

[5] = In vitro stability of 99m-Tc-CB-PAO after pH lowering with gentisic acid; assay type: physicochemical; conditions: about 6mM gentisic acid solution added
Method: The d,l isomer is then complexed with 99m-technetium to obtain a brain perfusion imaging agent. To formulate the 99m-Tc-d,l-CB-PAO 5ml of a ligand solution is placed into an evacuated 10 ml vial. The ligand solution contained approximately 0.5 mg/ml of ligand. One hundred and fifty microliters of a tin chloride solution containing 10 mg of tin chloride per 50 ml in water was added. Ten to one hundred microliters of 99m-pertechnetate sodium solution eluted from a molybdenum 99 generator is added to the vial and this is shaken for 10 seconds. An imaging solution can be immediately removed for use.
However, it is preferable that the pH of the solution which upon addition of the stanous chloride is about 8.9 be lowered. Accordingly, gentisic acid was used to lower the pH of the complex. A solution of gentisic acid was made by dissolving 0.0303g of gentisic acid and 30ml saline. 3.0 milliliters of this solution was pipetted into another vial.
An additional 30ml of saline was added. This latter vial was purged with argon for 50 minutes and sealed to yield a solution of about […] in gentisic acid. 1.0-1.2ml of the above solution was added to a 10 ml evacuated vial. 2.5 milliliters of 99m-Tc-CB-PAO previously prepared is then added to this evacuated vial. This was then tested for stability. At 15 minutes, 100% of the 99m-Tc-CB-PAO remained. At 165 minutes again 100% of the 99m-Tc-CB-PAO remained. At 18 hours 98% of the 99m-Tc-CB-PAO remained.

[6] = cited from earlier work
[7] = background statement; cited from earlier work

decrease in cerebral activity ([1]; between 15 minutes and 2 hours after injection): about 5%
stability of brain uptake, in words ([1]; up to five hours after injection): stable for up to five hours
injected dose taken up by the brain ([1]; within the first five minutes after intravenous injection): Approximately 3.6 % of the injected dose
Stabilization ([2]; 23 min): 30%
CB/HM ([2]; 23 min): 1.85
Stabilization ([2]; 74 min): 50%
CB/HM ([2]; 74 min): 2.04
Stabilization ([2]; 3.3 h): 53%
CB/HM ([2]; 3.3 h): 2.11
Stabilization ([2]; 12.2 h): 140%
CB/HM ([2]; 12.2 h): 3.29
Stabilization ([2]; 13.4 h): 160%
CB/HM ([2]; 13.4 h): 3.58
in vitro stability, in words [2]: most of the 99m-Tc CB-PAO remained
Stabilization ([2]; time 0): 0%
CB/HM ([2]; time 0): 1.40
percentage of 99m-Tc complex (CB or HM) ([2]; time 0): 55.2%
injected dose cleared through the renal system ([3]; within 24 hours): approximately 37 % of the injected dose
injected dose cleared through the renal system ([3]; within five hours, 300 min): Approximately 24 % of the injected dose
Whole body distribution, Bladder & Urine ([4]; 15'): 4.2 ± 1.36
Whole body distribution, Blood ([4]; 15'): 14.9 ± 0.79
Whole body distribution, Brain ([4]; 15'): 3.6 ± 0.26
Whole body distribution, Gallbladder ([4]; 15'): 2.2 ± 0.05
Whole body distribution, Liver ([4]; 15'): 26.4 ± 7.1
Whole body distribution, Lungs ([4]; 15'): 4.0 ± 0.85
Whole body distribution, Bladder & Urine ([4]; 2h): 19.4 ± 8.4
Whole body distribution, Blood ([4]; 2h): 8.3 ± 0.7
Whole body distribution, Brain ([4]; 2h): 3.5 ± 0.15
Whole body distribution, Gallbladder ([4]; 2h): 2.8 ± 0.7
Whole body distribution, Liver ([4]; 2h): 25.4 ± 7.
Whole body distribution, Lungs ([4]; 2h): 3.1 ± 0.70
Whole body distribution, Bladder & Urine ([4]; 5h): 23.5 ± 2.80
Whole body distribution, Blood ([4]; 5h): 5.8 ± 0.45
Whole body distribution, Brain ([4]; 5h): 3.5 ± 0.11
Whole body distribution, Gallbladder ([4]; 5h): 1.7 ± 0.65
Whole body distribution, Liver ([4]; 5h): 22.3 ± 9.5
Whole body distribution, Lungs ([4]; 5h): 2.7 ± 0.72
99m-Tc-CB-PAO remaining ([5]; 15 minutes): 100%
99m-Tc-CB-PAO remaining ([5]; 165 minutes): 100%
99m-Tc-CB-PAO remaining ([5]; 18 hours): 98%
Compound: CC1=[N+]([O-])[99Tc-2]23(=[O])[N](CC4(CCC4)C[N]2C(C)C(C)=[N+]3O)C1C (racemic) [99m-Tc CB-PAO]
tomographic brain image quality, in words ([1]; tomographic study at one hour after administration): good definition of cerebral structures and good distinction between grey and white matter
in vitro stability compared with the prior art brain imaging agent, in words ([2]; vs 99m-Tc HM-PAO): substantially more stable in vitro than the prior art brain imaging agent

in vitro stability, in words [2]: most of the 99m-Tc HM-PAO had decomposed
percentage of 99m-Tc complex (CB or HM) ([2]; time 0): 39.5%
Compound: C/C(=N\O)[C@@H](C)NCC(C)(C)CN[C@H](C)/C(C)=N/O [99m-Tc HM-PAO, 4,8,-diaza-3,6,6,9-tetramethyl undecane-2,10-dione bisoxime, metal not drawn]
aqueous in vitro degradation rate, in words ([6]; J. Nucl. Med. 1988): slow
time after formulation within which it must be administered ([6]; aqueous, without stabilizer, J. Nucl. Med. 1988): ≤ 30 min
time after preparation within which it must be used, in words ([6]; stabilized with gentisic acid within 30 seconds after formation): must be used within hours after preparation
brain passage and retention, in words [7]: passes through the blood brain barrier, is theoretically altered in some way, and remains in the brain for a period of time sufficient to obtain a successful brain image
